The text below walks through data of patent publication US8859022B2, “Antihypertensive agents” (Bourbon Corporation, priority 2011, dated 2014).

Where two headings read alike, the source gives them in different places.

Data set [1] is described as follows: Literature oral absorption of apple procyanidins (J. Agric. Food Chem., 54, 884-892, 2006). It counts as in vivo, rats. The settings on record: worked out from literature values, A in mg/kg. The source says: Studies on oral absorbability of various kinds of proanthocyanidins have reported that oligomers with a low degree of polymerization are efficiently orally absorbed (see R. R. Holt, S. A. Lazarus, M. C. Sullards, Q. Y. Zhu, D. D. Schramm, J. F. Hammerstone, C. G. Fraga, H. H. Schmitz and C. L. Keen, Procyanidin dimer B2 [epicatechin-(4β-8)-epicatechin] in human plasma after the consumption of a flavanol-rich cocoa. Am. J. Clin. Nutr. 2002, 76, p. 798-804. T. Shoji, S. Masumoto, N. Moriichi, H. Akiyama, T. Kanda, Y. Ohtake, Y. Goda. Apple procyanidin oligomers absorption in rats after oral administration: Analysis of procyanidins in plasma using the porter method and High-Performance Liquid Chromatography/Tandem Mass Spectrometry. J. Agric. Food Chem. 2006, 54, p. 884-892).

The conditions of data set [2]: Apple, literature values; cited from earlier work.
Data set [3] in a line: Oral absorbability evaluation test of proanthocyanidins extracted from Boysenberry seed (LC/MS/MS of blood plasma). To be noted: Boysenberry seed (present invention); for B/A (blood concentration after 2 hours / administration quantity): A in mg/kg, B in μg/mL; for Blood concentration after 2 hours B: partitioned concentrate of seed extract 1000 mg/kg oral, Wistar rats, plasma. It counts as in vivo, Wistar rats. How it is done:
The test animal used was Wistar rats (males, aged 9 weeks, with initial weight of 190 to 210 g, obtained from Japan SLC, Inc.). After fasting for 12 hours, the Wister rats were forcefully orally administered each 1000 mg/kg of the partitioned concentrate of seed extract or the partitioned concentrate of thermally-treated seed extract obtained in Example 1. Then, every 1, 2, 4, and 6 hours after the administration, the rats were killed to collect the whole blood. Each whole blood was centrifuged for 10 minutes at 4° C. at 2,000×g to obtain blood plasma as a supernatant. To 1 mL of each blood plasma were added 30 μL of 50% formic acid and 100 μL of 10 mM ascorbic acid solution to mix together, and to 1 mL of the mixed blood plasma solution were added 50 μL of (1 μg of) a catechol solution as an internal standard reagent and 30 μL of phosphoric acid to prepare each sample for analysis. Regarding the samples, measurements of a procyanidin dimer, a propelargonidin dimer, a procyanidin trimer, and a propelargonidin trimer were carried out at molecular weights of 577/289, 561/289, 865/289, and 849/289, using a liquid chromatography-mass spectrometry (LC/MS) (Shimadzu Prominence UFLC manufactured by Shimadzu Corp.; with ODS column; gradient elution with formic acid, methanol, and water) and MS/MS (API 3200 manufactured by Applied Biosystems Co. Ltd., negative-ion mode) to determine the quantities of the proanthocyanidins in the blood plasma. […] Additionally, FIG. 5 and Table 3 show LC/MS charts of the measurements of proanthocyanidin dimer and trimer components in the blood plasma after 2 hours of the administration of the partitioned concentrate of seed extract.

Regarding `Oc1cc(O)c2c(c1)O[C@H](c1ccc(O)c(O)c1)[C@H](O)[C@H]2c1c(O)cc(O)c2c1O[C@H](c1ccc(O)c(O)c1)[C@@H](O)C2` [PC dimer B1], the “B/A (blood concentration after 2 hours / administration quantity)” value in data set [1] is recorded as 2.4 (×10^−6) (kg/ml). The “Blood concentration after 2 hours B” value in data set [2] was 120 ng/mL.
`Oc1cc(O)c2c(c1)O[C@H](c1ccc(O)c(O)c1)[C@H](O)[C@H]2c1c(O)cc(O)c2c1O[C@H](c1ccc(O)c(O)c1)[C@H](O)C2` [PC dimer B2, epicatechin-(4β-8)-epicatechin]: the “B/A (blood concentration after 2 hours / administration quantity)” value in data set [1] was 2.5 (×10^−6) (kg/ml). Further, the “Blood concentration after 2 hours B” value in data set [2] is 230 ng/mL.
On to `Oc1cc(O)c2c(c1)O[C@H](c1ccc(O)c(O)c1)[C@@H](O)[C@@H]2c1c(O)cc(O)c2c1O[C@H](c1ccc(O)c(O)c1)[C@@H](O)C2` [PC dimer B3, Procyanidin B3], for which, in data set [3], the “B/A (blood concentration after 2 hours / administration quantity)” value was 30.0 (×10^−6) (kg/ml) and the “Blood concentration after 2 hours B” value worked out at 120 ng/mL.
For the molecule `Oc1cc(O)c2c(c1)O[C@H](c1ccc(O)c(O)c1)[C@@H](O)[C@@H]2c1c(O)cc(O)c2c1O[C@H](c1ccc(O)c(O)c1)[C@H](O)C2` [PC dimer B4, Procyanidin B4], in data set [3], the “B/A (blood concentration after 2 hours / administration quantity)” value is reported as 32.9 (×10^−6) (kg/ml) and the “Blood concentration after 2 hours B” value turned out to be 560 ng/mL.
Turning to `Oc1cc(O)c2c(c1)O[C@H](c1ccc(O)c(O)c1)[C@H](O)[C@H]2c1c(O)cc(O)c2c1O[C@H](c1ccc(O)c(O)c1)[C@H](O)[C@H]2c1c(O)cc(O)c2c1O[C@H](c1ccc(O)c(O)c1)[C@H](O)C2` [PC trimer C1], the “B/A (blood concentration after 2 hours / administration quantity)” value is 1.9 (×10^−6) (kg/ml) in data set [1] and 25.0 (×10^−6) (kg/ml) in data set [3]. In addition, the “Blood concentration after 2 hours B” value in data set [3] was 200 ng/mL; in data set [2], 120 ng/mL.
